Reference: ChEMBL document CHEMBL3885861, “Open TG-GATES”

Species: Rattus norvegicus
Assay: Open TG-GATES - Regimen: Single
Type: toxicity, organism-based, Sprague-Dawley
Parameters: regimen Single, gender Male, age 6 weeks
Details: in vivo, po, 0 mg/kg, route gavage, dose level Control; for APTT / Bas / Eos / Fbg / Hb / Ht / Lym / MCH / MCHC / MCV / Mono / Neu / Plat / RBC / Ret / WBC: tissue Blood; for KIDNEY_L / KIDNEY_R / KIDNEY_TOTAL: tissue Kidney; for LIVER: tissue Liver; for ALP / ALT / AST / BUN / CRE / Ca / Cl / DBIL / GLC / IP / K / LDH / Na / PL / RALB / TBIL / TC / TG / TP / gamma-GTP: tissue Plasma

CC(=O)Oc1ccccc1C(=O)O [ASPIRIN]
TERMINAL_BW (3 h): 221 g | APTT (3 h): 17.5 s | Bas (3 h): 0.2% | Eos (3 h): 1.2% | Fbg (3 h): 226.6 mg/dL | Hb (3 h): 13.4 g/dL | Ht (3 h): 37.1% | Lym (3 h): 75.4% | MCH (3 h): 22 pg | MCHC (3 h): 36.1% | MCV (3 h): 60.8 fL | Mono (3 h): 2.2% | Neu (3 h): 20% | Plat (3 h): 118.6 x10_4/uL | RBC (3 h): 611.4 x10_4/ul | Ret (3 h): 8% | WBC (3 h): 87.8 x10_2/uL | KIDNEY_L (3 h): 1 g | KIDNEY_R (3 h): 1 g | KIDNEY_TOTAL (3 h): 2 g | LIVER (3 h): 9.9 g | ALP (3 h): 895.2 IU/L | ALT (3 h): 34.8 IU/L | AST (3 h): 72.4 IU/L | BUN (3 h): 9.8 mg/dL | CRE (3 h): 0.4 mg/dL | Ca (3 h): 10.7 mg/dL | Cl (3 h): 103.8 meq/L | DBIL (3 h): 0.066 mg/dL | GLC (3 h): 198.2 mg/dL | IP (3 h): 9.6 mg/dL | K (3 h): 3.9 meq/L | LDH (3 h): 186.2 IU/L | Na (3 h): 142.4 meq/L | PL (3 h): 138.4 mg/dL | RALB (3 h): 3.4 g/dL | TBIL (3 h): 0.1 mg/dL | TC (3 h): 77 mg/dL | TG (3 h): 48.8 mg/dL | TP (3 h): 5.5 g/dL | gamma-GTP (3 h): 1.2 IU/L | TERMINAL_BW (6 h): 217.3 g | APTT (6 h): 17.7 s | Bas (6 h): 0% | Eos (6 h): 0.8% | Fbg (6 h): 235 mg/dL | Hb (6 h): 13.9 g/dL | Ht (6 h): 38.3% | Lym (6 h): 77.2% | MCH (6 h): 22 pg | MCHC (6 h): 36.3% | MCV (6 h): 60.5 fL | Mono (6 h): 2.4% | Neu (6 h): 18.4% | Plat (6 h): 131.2 x10_4/uL | RBC (6 h): 632.8 x10_4/ul | Ret (6 h): 7.8% | WBC (6 h): 104.9 x10_2/uL | KIDNEY_L (6 h): 0.9 g | KIDNEY_R (6 h): 0.9 g | KIDNEY_TOTAL (6 h): 1.9 g | LIVER (6 h): 9 g | ALP (6 h): 815 IU/L | ALT (6 h): 32 IU/L | AST (6 h): 68.4 IU/L | BUN (6 h): 9 mg/dL | CRE (6 h): 0.4 mg/dL | Ca (6 h): 10.6 mg/dL | Cl (6 h): 103.2 meq/L | DBIL (6 h): 0.07 mg/dL | GLC (6 h): 185.8 mg/dL | IP (6 h): 9.5 mg/dL | K (6 h): 3.8 meq/L | LDH (6 h): 208.8 IU/L | Na (6 h): 141.2 meq/L | PL (6 h): 139.2 mg/dL | RALB (6 h): 3.4 g/dL | TBIL (6 h): 0.1 mg/dL | TC (6 h): 80.4 mg/dL | TG (6 h): 62.8 mg/dL | TP (6 h): 5.5 g/dL | gamma-GTP (6 h): 1 IU/L | TERMINAL_BW (9 h): 214.9 g | APTT (9 h): 17.3 s | Bas (9 h): 0% | Eos (9 h): 0.8% | Fbg (9 h): 224 mg/dL | Hb (9 h): 14 g/dL | Ht (9 h): 38.7% | Lym (9 h): 80.2% | MCH (9 h): 22.2 pg | MCHC (9 h): 36.3% | MCV (9 h): 61.1 fL | Mono (9 h): 2.4% | Neu (9 h): 15.2% | Plat (9 h): 121.8 x10_4/uL | RBC (9 h): 632.8 x10_4/ul | Ret (9 h): 8% | WBC (9 h): 88.9 x10_2/uL | KIDNEY_L (9 h): 0.9 g | KIDNEY_R (9 h): 0.9 g | KIDNEY_TOTAL (9 h): 1.8 g | LIVER (9 h): 8.6 g | ALP (9 h): 795.2 IU/L | ALT (9 h): 31.2 IU/L | AST (9 h): 64.8 IU/L | BUN (9 h): 9.4 mg/dL | CRE (9 h): 0.4 mg/dL | Ca (9 h): 10.4 mg/dL | Cl (9 h): 104 meq/L | DBIL (9 h): 0.066 mg/dL | GLC (9 h): 206.6 mg/dL | IP (9 h): 10 mg/dL | K (9 h): 3.8 meq/L | LDH (9 h): 205.6 IU/L | Na (9 h): 141.4 meq/L | PL (9 h): 128.6 mg/dL | RALB (9 h): 3.4 g/dL | TBIL (9 h): 0.1 mg/dL | TC (9 h): 69.2 mg/dL | TG (9 h): 46.2 mg/dL | TP (9 h): 5.6 g/dL | gamma-GTP (9 h): 1.2 IU/L | TERMINAL_BW (24 h): 234.6 g | APTT (24 h): 18.4 s | Bas (24 h): 0.8% | Eos (24 h): 1% | Fbg (24 h): 222.8 mg/dL | Hb (24 h): 13.8 g/dL | Ht (24 h): 37.7% | Lym (24 h): 77.2% | MCH (24 h): 22.6 pg | MCHC (24 h): 36.6% | MCV (24 h): 61.7 fL | Mono (24 h): 2.8% | Neu (24 h): 17.8% | Plat (24 h): 132 x10_4/uL | RBC (24 h): 611.8 x10_4/ul | Ret (24 h): 7.1% | WBC (24 h): 109.6 x10_2/uL | KIDNEY_L (24 h): 1 g | KIDNEY_R (24 h): 1 g | KIDNEY_TOTAL (24 h): 2 g | ALP (24 h): 1023.4 IU/L | ALT (24 h): 39 IU/L | AST (24 h): 72.4 IU/L | BUN (24 h): 15.8 mg/dL | CRE (24 h): 0.4 mg/dL | Ca (24 h): 10.6 mg/dL | Cl (24 h): 103.6 meq/L | DBIL (24 h): 0.062 mg/dL | GLC (24 h): 204.2 mg/dL | IP (24 h): 7.8 mg/dL | K (24 h): 3.9 meq/L | LDH (24 h): 207.2 IU/L | Na (24 h): 141.2 meq/L | PL (24 h): 153.4 mg/dL | RALB (24 h): 3.5 g/dL | TBIL (24 h): 0.1 mg/dL | TC (24 h): 74 mg/dL | TG (24 h): 124.4 mg/dL | TP (24 h): 5.6 g/dL | gamma-GTP (24 h): 1.2 IU/L
